Laboratory results reported in patent US11066381B2, “Urolithins-containing aqueous solution, dried solid composition thereof and production method therefor, and urolithins stabilizing method” (DAICEL CORPORATION, priority 2016, dated 2021).

Experiment: Stability improvement test for urolithin (residual ratio by HPLC after storage at 60° C.)
Format: physicochemical
Conditions: for Urolithin A residual ratio (%) (60° C.) 1 week later / Urolithin A residual ratio (%) (60° C.) 2 weeks later: aqueous solution with 10% ethanol, 10% glycerin, 0.005% urolithin A; for Urolithin A residual ratio (%) (60° C.) 1 week later: stored at 60° C. for 1 week; for Urolithin A residual ratio (%) (60° C.) 2 weeks later: stored at 60° C. for 2 weeks
Method: The stability of urolithin can be studied by measuring the total amount of urolithin before storage and the total amount of urolithin after storage under a temperature condition of 60° C. for one week or two weeks, and then calculating the urolithin residual ratio (%) according to the following calculation equation. As the method for measuring urolithin, for example, the method using HPLC described in Examples can be used. Urolithin residual ratio (%)=(total amount of urolithin after storage/total amount of urolithin before storage)×100 [Calculation Equation]
A description is given below for a case where urolithin A was used as the urolithin. Analysis of urolithin A was carried out using HPLC. More specifically, urolithin A (manufactured by Dalton Farma) was dissolved in an appropriate solvent to prepare a solution, and the solution was analyzed under the following HPLC conditions. Using the purity (%) (A) and the peak area value (B) in the HPLC, the factor of urolithin A and the urolithin A concentration in the sample were calculated according to the following calculation equation (1) and calculation equation (2). (Calculation Equation for Factor of Urolithin A) Factor of urolithin A=(B)/(concentration of standard solution of urolithin A (mg/L)×(A)/100) (1) (Calculation Equation for Urolithin A Concentration in Sample) Urolithin A concentration in sample (mg/L)=peak area value of urolithin A in sample/factor of urolithin A (2)
To an aqueous solution containing 10% ethanol and 10% glycerin, urolithin A was added to a concentration of 0.005%, and then the urolithin A was dissolved therein. To this solution, collagen (Hanamai) was added to a concentration of 0.5% to prepare a urolithin A-containing aqueous solution. The urolithin A content in the urolithin A-containing aqueous solution was measured after one week of storage and after two weeks of storage under a temperature condition of 60° C. By comparing the urolithin A contents measured before and after the storage, the residual ratio was calculated to evaluate the stability.
The same operation as in Example 1 was carried out except that collagen was not added, to provide a control as Comparative Example 1.
The residual ratio of urolithin A was calculated according to the following calculation equation (3). Urolithin residual ratio (%)=(content of urolithin A after storage/content of urolithin A before storage)×100 (3)

[1] = collagen 0% (Comparative Example 1)

SMILES: O=c1oc2cc(O)ccc2c2ccc(O)cc12 [Urolithin A, urolithin A]
- Urolithin A residual ratio (%) (60° C.) 1 week later [1]: 66.9%
- Urolithin A residual ratio (%) (60° C.) 2 weeks later [1]: 45.0%
- Urolithin A residual ratio (%) (60° C.) 1 week later (collagen 0.5% (Example 1)): 92.4%
- Urolithin A residual ratio (%) (60° C.) 2 weeks later (collagen 0.5% (Example 1)): 92.2%
- stability of urolithin A (in the presence of collagen versus without collagen, storage at 60° C.): increases in the presence of collagen
